Data published in ChEMBL document CHEMBL1127342, “Structure-based design of HIV protease inhibitors: 4-hydroxycoumarins and 4-hydroxy-2-pyrones as non-peptidic inhibitors” (J Med Chem, 1994).
pEC50, pIC50, pKi: −log10 of the molar value.

Key:
[1] = biological target: T1, Human immunodeficiency virus type 1 protease (Human immunodeficiency virus 1, UniProt Q72874); test: (§1) Tested for the HIV Protease inhibitory activity of the compound
[2] = Oral bioavailability in rat; assay type: ADME, organism-based; conditions: in vivo
[3] = Tested for pharmacokinetic parameter to calculate the steady-state volume of distributio at a dosage of 12 mg/kg in rat; assay type: ADME, organism-based; set-up: dose 12 mg/kg; conditions: in vivo, read-out: Vss
[4] = Tested for pharmacokinetic parameter to calculate the steady-state volume of distributio at a dosage of 2.5 mg/kg in dog; assay type: ADME, organism-based, Canis lupus familiaris; set-up: dose 2.5 mg/kg; conditions: in vivo, read-out: Vss
[5] = biological target: Human immunodeficiency virus type 1 protease (Human immunodeficiency virus 1) (UniProt Q72874); test: Tested for the activity against HIV protease
[6] = Tested for pharmacokinetic parameter to calculate the half life period at a dosage of 2.5 mg/kg in dog; assay type: ADME, organism-based, Canis lupus familiaris; set-up: dose 2.5 mg/kg; conditions: in vivo
[7] = Oral bioavailability in dog; assay type: ADME, organism-based, Canis lupus familiaris; conditions: in vivo
[8] = biological target: T2, Cathepsin E (Homo sapiens) (UniProt P14091); test: Tested for the inhibitory activity against human aspartyl protease, cathepsin E at 10 uM concentration
T2 sequence (whole entry): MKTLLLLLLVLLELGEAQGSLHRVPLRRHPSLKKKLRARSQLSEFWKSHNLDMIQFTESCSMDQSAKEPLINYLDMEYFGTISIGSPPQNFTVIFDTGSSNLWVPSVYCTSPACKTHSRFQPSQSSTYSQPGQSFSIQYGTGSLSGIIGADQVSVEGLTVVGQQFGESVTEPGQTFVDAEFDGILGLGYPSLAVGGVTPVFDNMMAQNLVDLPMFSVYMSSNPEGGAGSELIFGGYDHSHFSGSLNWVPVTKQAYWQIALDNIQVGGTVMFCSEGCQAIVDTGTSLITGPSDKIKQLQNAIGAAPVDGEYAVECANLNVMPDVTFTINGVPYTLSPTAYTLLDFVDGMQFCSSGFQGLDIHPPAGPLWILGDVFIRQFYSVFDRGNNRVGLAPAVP

[9] = biological target: Cathepsin D (Homo sapiens) (UniProt P07339); test: Tested for the inhibitory activity against human aspartyl protease, cathepsin D at 10 uM concentration
Sequence of Cathepsin D (Homo sapiens) (P07339 65-162 limits assumed): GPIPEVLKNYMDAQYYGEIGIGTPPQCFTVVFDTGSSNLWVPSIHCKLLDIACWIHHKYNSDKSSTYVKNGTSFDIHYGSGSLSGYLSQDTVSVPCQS
Sequence of Cathepsin D (Homo sapiens) (P07339 169-412 limits assumed): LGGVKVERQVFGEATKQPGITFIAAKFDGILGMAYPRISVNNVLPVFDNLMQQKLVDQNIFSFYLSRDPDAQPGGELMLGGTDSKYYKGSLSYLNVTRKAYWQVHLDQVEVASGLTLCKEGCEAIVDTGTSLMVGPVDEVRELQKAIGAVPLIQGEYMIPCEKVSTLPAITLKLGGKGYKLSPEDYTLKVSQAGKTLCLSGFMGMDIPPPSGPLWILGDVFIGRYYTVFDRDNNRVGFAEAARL

[10] = biological target: Gastricsin (Homo sapiens) (UniProt P20142); test: Tested for the inhibitory activity against human aspartyl protease gastricsin at 10 uM concentration
Sequence of Gastricsin (Homo sapiens) (P20142 whole entry, looked up): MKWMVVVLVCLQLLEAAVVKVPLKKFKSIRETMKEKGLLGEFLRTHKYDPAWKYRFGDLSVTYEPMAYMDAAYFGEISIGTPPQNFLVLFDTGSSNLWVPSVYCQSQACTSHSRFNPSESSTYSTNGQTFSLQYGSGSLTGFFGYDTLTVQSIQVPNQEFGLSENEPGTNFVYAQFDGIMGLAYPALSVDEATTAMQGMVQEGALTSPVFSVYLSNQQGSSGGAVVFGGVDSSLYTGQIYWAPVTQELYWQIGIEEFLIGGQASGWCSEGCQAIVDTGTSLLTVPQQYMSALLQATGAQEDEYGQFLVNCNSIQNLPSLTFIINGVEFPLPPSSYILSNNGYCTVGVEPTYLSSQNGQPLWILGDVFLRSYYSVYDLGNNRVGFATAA

[11] = Tested for antiviral activity against clinical isolates such as AZT resistant strain; assay type: functional; conditions: read-out: ED50 (the source's name)
H9 = test: Tested for the antiviral activity against HIV-1 IIIB-infected H9 cells; assay type: functional; conditions: Homo sapiens, read-out: ED50 (the source's name)
[12] = Tested for pharmacokinetic parameter to calculate the total body clearance at a dosage of 2.5 mg/kg in dog; assay type: ADME, organism-based, Canis lupus familiaris; set-up: dose 2.5 mg/kg; conditions: in vivo, read-out: ClT
[13] = Tested for pharmacokinetic parameter to calculate the half life period at a dosage of 12 mg/kg in rat; assay type: ADME, organism-based; set-up: dose 12 mg/kg; conditions: in vivo
[14] = biological target: T1, Human immunodeficiency virus type 1 protease; test: Tested for the binding affinity against HIV-1 Protease
Pepsin A (Homo sapiens) = Pepsin A (Homo sapiens) (UniProt P0DJD9); test: Inhibitory activity against human aspartyl protease, pepsin at 10 uM
Sequence of Pepsin A (Homo sapiens) (P0DJD9 63-388 limits assumed): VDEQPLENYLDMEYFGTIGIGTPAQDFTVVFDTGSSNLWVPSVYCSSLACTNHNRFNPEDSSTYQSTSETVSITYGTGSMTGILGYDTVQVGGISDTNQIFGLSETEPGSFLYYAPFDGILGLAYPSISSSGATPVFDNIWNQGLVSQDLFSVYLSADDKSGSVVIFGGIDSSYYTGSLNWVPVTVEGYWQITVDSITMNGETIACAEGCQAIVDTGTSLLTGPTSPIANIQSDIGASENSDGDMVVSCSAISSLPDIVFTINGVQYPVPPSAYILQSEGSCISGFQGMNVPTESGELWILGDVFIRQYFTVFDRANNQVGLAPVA

[15] = Tested for pharmacokinetic parameter to calculate the total body clearance at a dosage of 12 mg/kg in rat; assay type: ADME, organism-based; set-up: dose 12 mg/kg; conditions: in vivo, read-out: ClT
Renin (Homo sapiens) = biological target: T3, Renin (Homo sapiens) (UniProt P00797); test: Tested for the inhibitory activity against human aspartyl protease, renin at 10 uM concentration
T3 sequence (whole entry): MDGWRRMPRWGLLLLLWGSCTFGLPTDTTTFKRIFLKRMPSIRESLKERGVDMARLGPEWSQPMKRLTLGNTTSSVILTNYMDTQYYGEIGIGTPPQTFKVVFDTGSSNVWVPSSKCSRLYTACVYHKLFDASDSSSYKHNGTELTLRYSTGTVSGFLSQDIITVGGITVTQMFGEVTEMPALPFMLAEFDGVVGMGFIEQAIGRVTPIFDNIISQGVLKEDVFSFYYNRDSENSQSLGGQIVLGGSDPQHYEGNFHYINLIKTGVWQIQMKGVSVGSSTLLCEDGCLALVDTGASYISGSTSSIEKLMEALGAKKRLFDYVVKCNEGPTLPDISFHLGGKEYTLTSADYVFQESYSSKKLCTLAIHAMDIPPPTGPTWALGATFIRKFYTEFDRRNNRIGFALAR

MT4 = test: Tested for the antiviral activity against HIV-1 IIIB-infected MT-4; assay type: functional; conditions: Homo sapiens, read-out: ED50 (the source's name)
[16] = Tested for antiviral activity in HIV-1 infected PBMC; 100-300; assay type: functional; conditions: Human immunodeficiency virus 1; read-out: ED50 (the source's name)
[17] = biological target: T1, Human immunodeficiency virus type 1 protease; test: as §1; assay type: functional

With `CCC(c1ccccc1)c1c(O)cc(CCc2ccccc2)oc1=O` (configuration not stated) the pKi [1] was 6.30.

For `CCC(Cc1ccccc1)c1cc(O)c(C(CC)c2ccccc2)c(=O)o1` (configuration not stated), the bioavailability [2] was 76%, the Vd [3] was 0.1 L/kg and the Vd [4] was 0.26 L/kg. The TCID50 [5] was 20 µM, the half-life [6] was 6 h and the bioavailability [7] was 45%. It also gave an inhibition [8] of 72%, an inhibition [9] of 52% and an inhibition [10] of 0%. The pEC50 [11] was 5.40, the pEC50 (H9) was 5.52 and the clearance [12] was 0.7 mL/min/kg. The half-life [13] was 4 h, the pKi [14] was 7.42 and the inhibition (Pepsin A (Homo sapiens)) was 53%. It also gave a clearance [15] of 0.8 mL/min/kg, an inhibition (Renin (Homo sapiens)) of 0% and a pEC50 (MT4) of 5.52.

Work on `CCC(c1ccccc1)c1c(O)c2ccccc2oc1=O` (configuration not stated) [PHENPROCOUMON] yielded a pEC50 [16] of 3.52 and a pKi [1] of 6.00.

`CC(=O)CC(c1ccccc1)c1c(O)c2ccccc2oc1=O` (configuration not stated) [WARFARIN] showed a pIC50 [17] of roughly 4.52.
